Literature values as cited in US8911781B2, “Process of manufacture of novel drug delivery system: multilayer tablet composition of thiazolidinedione and biguanides” (Inventia Healthcare Private Limited, priority 2002, dated 2014).
Structures can show the parent of a compound that is named as a salt.

Legend:
[1] = after ingestion
[2] = at steady state concentrations; parent drug

time to complete gastro-intestinal absorption [1]	plasma elimination half-life (t½) [2]	Compound
≤ 6 h		CN(C)C(=N)N=C(N)N [Metformin HCl]
	3.3 to 4.9 h	CCc1ccc(CCOc2ccc(CC3SC(=O)NC3=O)cc2)nc1 (centres unmarked) [Pioglitazone HCl]
